Reference: patent US8017315B2, “Mitochondrial localization of MUC1” (Dana Farber Cancer Institute, Inc., priority 2005, dated 2011)
Ends that are not written are not given here.

How the values were obtained:
[1] = tested on: purified recombinant human HSP90; assay: GST pull-down binding study with recombinant HSP90; conditions: for binding to HSP90 after incubation with c-Src and ATP: GST fusion proteins incubated with c-Src and ATP 20 minutes at 30° C., then HSP90 1 hour at 4° C.
Method: (§1) Binding Studies. Sequences encoding MUC1-CD, MUC1-CD(1-45), or MUC1-CD(46-72) were amplified by PCR and cloned into the pGEX-4T vector (Amersham Biosciences, Piscataway, N.J.). Purified GST-MUC1-CD fusion proteins bound to glutathione beads were incubated with purified recombinant human HSP70 or HSP90 (Stressgen Biotechnologies) for 1 hour at 4° C. In other experiments, the purified GST fusion proteins bound to glutathione beads were incubated with or without 50 ng c-Src (Upstate Biotechnology) in the presence of […] for 20 minutes at 30° C. HSP90 was then added for 1 hour at 4° C. Precipitated proteins were subjected to immunoblot analysis with anti-HSP70 or anti-HSP90.

[2] = molecular target: T1, purified recombinant human HSP70 (Homo sapiens, UniProt P0DMV8); assay: GST pull-down binding study with recombinant HSP70; conditions: GST fusion proteins on glutathione beads, 1 hour at 4° C., no c-Src
T1 construct: purchased Stressgen Biotechnologies
Method: as §1

[3] = molecular target: HSP70 (endogenous, in lysates of human cells) (human) (UniProt P0DMV8); assay: anti-MUC1-N immunoprecipitation from HCT116/MUC1 lysates, immunoblot, scanning densitometry
c-Src = c-Src (Homo sapiens, UniProt P12931); assay: c-Src activation (autophosphorylation), anti-c-Src immunoprecipitation and immunoblot; format: cell-based; conditions: HCT116/MUC1 cells
Method: (§2) Cell culture. Human HCT116/vector, HCT116/MUC1, HCT116/MUC1(Y46F) (Ren et al. (2004) Cancer Cell 5:163-175) and HCT116/MUC1-CD (Huang et al. (2003) Cancer Biol. Ther. 2:702-706) cells were cultured in Dulbecco's Modified Eagle Medium/F12 with 10% heat-inactivated fetal bovine serum (HI-FBS), 100 units/ml penicillin, […], and 2 mM L-glutamine. Human HeLa cervical carcinoma, 293 embryonic kidney and MCF-7 breast cancer cells were grown in Dulbecco's Modified Eagle Medium containing 10% HI-FBS, antibiotics and L-glutamine. Human ZR-75-1 breast cancer cells were cultured in RPMI1640 medium containing 10% HI-FBS, antibiotics and L-glutamine. Cells were grown to 60% confluence and then maintained overnight in medium with 0.1% serum before treatment with heregulin (HRG; 20 ng/ml; Calbiochem-Novabiochem, LaJolla, Calif.).
Immunoprecipitation and immunoblotting. […] Reactivity was detected with horseradish peroxidase-conjugated secondary antibodies and chemiluminescence (PerkinElmer Life Sciences, Boston, Mass.). Intensity of the signals was determined by densitometric scanning. Statistical significance was determined by the Student's t-test.

[4] = tested on: localization of MUC1-C to mitochondria; assay: Immunoblot of purified mitochondria for MUC1 targeting; format: cell-based, Human; conditions: HCT116/MUC1 cells
Method: as §2
(§3) Immunoprecipitation and immunoblotting. […] Reactivity was detected with horseradish peroxidase-conjugated secondary antibodies and chemiluminescence (PerkinElmer Life Sciences, Boston, Mass.). Intensity of the signals was determined by densitometric scanning. Statistical significance was determined by the Student's t-test. […]

[5] = tested on: binding of MUC1 and HSP90; assay: MUC1-HSP90 co-immunoprecipitation and immunoblot in cells; format: cell-based, Human
Method: Cell culture. […] Human ZR-75-1 breast cancer cells were cultured in RPMI1640 medium containing 10% HI-FBS, antibiotics and L-glutamine. Cells were grown to 60% confluence and then maintained overnight in medium with 0.1% serum before treatment with heregulin (HRG; 20 ng/ml; Calbiochem-Novabiochem, LaJolla, Calif.).
Immunoprecipitation and immunoblotting. […] Lysates not subjected to immunoprecipitation were immunoblotted with anti-MUC1-C, anti-HSP60 (Stressgen Biotechnologies, Victoria, BC, Canada), anti-PDGFR (Santa Cruz Biotechnology), anti-BAP31 (Abcam, Cambridge, Mass.), anti-PCNA (Calbiochem-Novabiochem), anti-IkBa (Santa Cruz Biotechnology), anti-calreticulin (Stressgen Biotechnologies), anti-Tom20 (BD Biosciences), anti-Tim23 (BD Biosciences), anti-Tim44 (BD Biosciences) or anti-β-actin (Sigma-Aldrich). Reactivity was detected with horseradish peroxidase-conjugated secondary antibodies and chemiluminescence (PerkinElmer Life Sciences, Boston, Mass.). Intensity of the signals was determined by densitometric scanning. Statistical significance was determined by the Student's t-test.
Subcellular fractionation. […] SM buffer ([…]) was added to one aliquot, and hypotonic buffer (10 mM MOPS-KOH, pH 7.2; […]) was added to the other aliquot. The samples were incubated for 15 minutes on ice and then left untreated or digested with […] trypsin (Sigma-Aldrich) for 15 minutes at 4° C. In other experiments, purified mitochondria in suspension buffer (5 mM HEPES, pH 7.4, 210 mM mannitol, 70 mM sucrose, 100 mM KCl, and 1 mM EGTA) were treated with 0.5% or 1% digitonin (Sigma-Aldrich) for 15 minutes at 4° C. Alternatively, the mitochondria were incubated with 0.5% digitonin for 1 minute at 4° C., diluted with suspension buffer, and then treated with […] trypsin for 15 minutes at 4° C.

cytosolic MUC1-C levels = assay: Immunoblot of cytosolic fractions for MUC1-C; format: cell-based, Human; conditions: cytosolic fraction of HCT116/MUC1 cells; HRG 10 minutes
Method: as §2, §3

[6] = tested on: binding of MUC1 and HSP70; assay: MUC1-HSP70 co-immunoprecipitation and immunoblot in cells; format: cell-based, Human; conditions: HRG 10 minutes
Method: as §2
Immunoprecipitation and immunoblotting. Equal amounts of protein from cell lysates were incubated with anti-MUC1-N (antibody DF3) (Kufe et al. (1984) Hybridoma 3:223-232), anti-Flag (Sigma-Aldrich, St. Louis, Mo.), anti-c-Src (Upstate Biotechnology, Lake Placid, N.Y.), anti-HSP90 (BD Biosciences PharMingen, San Diego, Calif.) or normal mouse IgG (Santa Cruz Biotechnology, Santa Cruz, Calif.) for 2 hours at 4° C. Immune complexes were prepared as described (Li et al. (1998) Mol. Cell. Biol. 18:7216-7224) and subjected to immunoblot analysis with anti-HSP70, anti-HSP90, anti-MUC1-N, anti-MUC1-C (Ab5; Neomarkers, Fremont, Calif.), anti-phospho-c-Src(Tyr416) (Cell Signaling Technology, Beverly, Mass.) or anti-c-Src. […] Reactivity was detected with horseradish peroxidase-conjugated secondary antibodies and chemiluminescence (PerkinElmer Life Sciences, Boston, Mass.). Intensity of the signals was determined by densitometric scanning. Statistical significance was determined by the Student's t-test.

[7] = molecular target: T2, purified recombinant human HSP90 (human, UniProt P08238 1-724, limits assumed); assay: GST pull-down with recombinant HSP90 after incubation with c-Src and ATP, anti-HSP90 immunoblot
T2 construct: Bought (Stressgen Biotechnologies); also called recombinant HSP90
T2 sequence (P08238 whole entry T147R/R177M): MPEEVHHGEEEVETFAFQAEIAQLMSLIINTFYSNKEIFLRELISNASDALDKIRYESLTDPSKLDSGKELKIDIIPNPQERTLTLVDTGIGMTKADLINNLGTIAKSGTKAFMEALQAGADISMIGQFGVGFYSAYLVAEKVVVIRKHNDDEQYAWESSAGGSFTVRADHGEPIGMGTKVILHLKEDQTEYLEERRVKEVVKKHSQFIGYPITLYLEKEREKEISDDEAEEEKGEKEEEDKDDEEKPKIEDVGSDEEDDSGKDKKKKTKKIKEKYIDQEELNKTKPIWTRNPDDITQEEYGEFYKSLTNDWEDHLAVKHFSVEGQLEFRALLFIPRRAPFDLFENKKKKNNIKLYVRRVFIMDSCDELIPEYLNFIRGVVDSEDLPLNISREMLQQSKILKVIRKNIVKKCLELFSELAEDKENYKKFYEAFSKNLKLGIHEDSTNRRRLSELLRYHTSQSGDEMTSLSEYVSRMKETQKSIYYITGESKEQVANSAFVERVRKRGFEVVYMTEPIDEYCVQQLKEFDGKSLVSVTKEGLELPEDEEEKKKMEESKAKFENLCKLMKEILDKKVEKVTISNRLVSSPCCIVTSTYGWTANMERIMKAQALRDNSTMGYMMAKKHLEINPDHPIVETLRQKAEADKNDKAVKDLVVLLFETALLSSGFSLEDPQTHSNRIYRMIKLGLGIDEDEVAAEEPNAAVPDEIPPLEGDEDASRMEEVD

T1 sequence (P0DMV8 2-641 limits assumed): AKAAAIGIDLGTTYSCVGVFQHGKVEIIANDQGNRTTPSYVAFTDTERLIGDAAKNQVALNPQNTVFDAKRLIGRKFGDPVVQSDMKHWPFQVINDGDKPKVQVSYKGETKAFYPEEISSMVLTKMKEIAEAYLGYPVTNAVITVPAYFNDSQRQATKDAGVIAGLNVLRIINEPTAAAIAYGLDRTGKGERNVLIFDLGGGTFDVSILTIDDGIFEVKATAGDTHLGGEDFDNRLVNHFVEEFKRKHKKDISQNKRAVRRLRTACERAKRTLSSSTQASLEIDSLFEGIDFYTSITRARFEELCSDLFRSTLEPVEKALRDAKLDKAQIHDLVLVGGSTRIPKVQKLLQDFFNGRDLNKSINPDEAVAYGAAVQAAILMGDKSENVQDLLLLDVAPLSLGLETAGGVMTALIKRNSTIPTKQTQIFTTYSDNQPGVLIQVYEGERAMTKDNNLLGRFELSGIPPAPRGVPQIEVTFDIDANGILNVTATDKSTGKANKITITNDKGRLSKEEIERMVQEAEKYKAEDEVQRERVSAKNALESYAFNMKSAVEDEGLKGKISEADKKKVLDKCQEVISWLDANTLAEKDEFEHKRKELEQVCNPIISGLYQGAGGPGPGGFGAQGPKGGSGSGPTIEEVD

Q: With “MUC1-CD: GST fusion of the 72 amino acid MUC1 cytoplasmic domain (SEQ ID NO:1)” as the molecule, how does the “binding to HSP90” value ([1]; GST fusion protein on glutathione beads, 1 hour at 4° C., no c-Src) read?
A: Its value is “but not HSP90”.

Q: And the “binding to HSP90 after incubation with c-Src and ATP” value [1]?
A: The value was “c-Src induced binding of MUC1-CD to HSP90”.

Q: What about the “binding to HSP70” value [2] of the same molecule?
A: Its value is “binds to HSP70”.

Q: “MUC1 (human, full length, expressed in cells) (from UniProt P15941 24-1255)” was tested. Which percent of the total HSP70 pool associated with MUC1 [3] did it give?
A: The percent of the total HSP70 pool associated with MUC1 was 0.6%.

Q: Which “HRG-induced c-Src activation” value (c-Src; PP2 10 μM for 1 hour, then HRG 20 ng/ml 10 minutes) does the source give for `CC(C)(C)n1nc(-c2ccc(Cl)cc2)c2c(N)ncnc21` [PP2, reference compound] here?
A: Its value is “blocked HRG-induced c-Src activation”.

Q: And the “HRG-induced targeting of MUC1 to mitochondria in presence of inhibitor” value ([4]; PP2 or GA for 1 hour, then HRG)?
A: The value was “attenuated”.

Q: What about the “HRG-induced binding of MUC1 and HSP90 in presence of inhibitor” value ([5]; HCT116/MUC1 cells, PP2 10 μM or GA 1 μM for 1 hour, then HRG, anti-MUC1-N precipitates) of the same molecule?
A: Its value is “attenuated this response”.

Q: What does the source list for “MUC1-CD(46-72): GST fusion of amino acids 46-72 (YEKVSAGNGGSSLSYTNPAVAATSANL; SEQ ID NO:2) of the human MUC1 CD (not fully specified; also: fused to GST)”?
A: binding to HSP90 after incubation with c-Src and ATP [1]: no detectable binding of HSP90; binding to HSP70 [2]: binding to HSP70 was detected

Q: heregulin [HRG] was tested. Which “cytosolic MUC1-C levels” value (cytosolic MUC1-C levels) did it give?
A: Its value is “increase in cytosolic MUC1-C levels”.

Q: What about the “c-Src activation as determined by autophosphorylation” value (c-Src; HRG 20 ng/ml 10 minutes) of the same molecule?
A: Its value is “activated c-Src”.

Q: What about the “localization of MUC1-C to mitochondria on HRG stimulation” value ([4]; HRG 10 minutes) of the same molecule?
A: Its value is “induces localization of MUC1-C, and not MUC1-N, to mitochondria”.

Q: And the “binding of MUC1-CD to HSP90 on HRG stimulation” value ([5]; HCT116/MUC1-CD (Flag-MUC1-CD) cells, HRG 10 minutes)?
A: The value was “stimulated binding of MUC1-CD to HSP90”.

Q: What about the “binding of MUC1 and HSP90 on HRG stimulation” value ([5]; HCT116/MUC1 cells, HRG 20 ng/ml 10 minutes) of the same molecule?
A: Its value is “increase in binding of MUC1 and HSP90”.

Q: And the “binding of endogenous MUC1 and HSP90 on HRG stimulation” value ([5]; MCF-7 breast cancer cells, HRG 10 minutes)?
A: Its value is “increased binding of MUC1 and HSP90”.

Q: And the “binding of endogenous MUC1 and HSP90 on HRG stimulation” value ([5]; ZR-75-1 breast cancer cells, HRG 10 minutes)?
A: Its value is “increased binding of MUC1 and HSP90”.

Q: And the “binding of cytosolic MUC1-C and HSP90” value ([5]; cytosolic fraction of HCT116/MUC1 cells, HRG 10 minutes, anti-HSP90 precipitates)?
A: The value was “increases binding of cytosolic MUC1-C and HSP90”.

Q: What about the “binding of MUC1 and HSP90 at the cell membrane” value ([5]; purified cell membranes of HCT116/MUC1 cells, HRG 10 minutes) of the same molecule?
A: The value was “stimulates binding of MUC1 and HSP90 at the cell membrane”.

Q: What about the “binding of MUC1-CD to HSP70 on HRG stimulation” value ([6]; HCT116/MUC1-CD (Flag-MUC1-CD) cells) of the same molecule?
A: The value was “little effect on binding of MUC1-CD to HSP70”.

Q: And the “binding of endogenous MUC1 and HSP70 on HRG stimulation” value ([6]; MCF-7 breast cancer cells)?
A: The value was “little if any effect on this interaction”.

Q: What about the “binding of endogenous MUC1 and HSP70 on HRG stimulation” value ([6]; ZR-75-1 breast cancer cells) of the same molecule?
A: Its value is “no apparent effect on the constitutive interaction between MUC1 and HSP70”.

Q: With “MUC1-CD(1-45): GST fusion deletion mutant, amino acids 1-45 of the MUC1 cytoplasmic domain (CQCRRKNYGQLDIFPARDTYHPMSEYPTYHTHGRYVPPSSTDRSP; not fully specified; cysteine pairing not given here; also: fused to GST)” as the molecule, how does the “binding to HSP90 after incubation with c-Src and ATP” value [1] read?
A: Its value is “no detectable binding of HSP90”.

B1: GST-MUC1-CD(1-45) (other)
chain: CQCRRKNYGQLDIFPARDTYHPMSEYPTYHTHGRYVPPSSTDRSP
modifications: not fully specified; cysteine pairing not given here; also: N-terminal GST fusion (pGEX-4T), sequence not given here
notes: Deletion mutant of MUC1-CD on glutathione beads; it lacks Y-46; not shown: glutathione S-transferase (GST) tag encoded by the pGEX-4T vector
Q: Does B1 bind [7]?
A: Result: no binding
